In patent US6593325B1, “Pyrido-pyridazine derivatives as ligands for GABA receptors” (Merck Sharp & Dohme Ltd., priority 1999, dated 2003) one finds melting point data, which are given here for 1 compound.

Structures are written as SMILES.

One may read the melting point as the temperature, or range, at which the solid turns liquid. The compound `Cn1ncnc1COc1nc2c(-c3ccccc3)nncc2cc1-c1ccccc1` [Example 1, 3,8-Diphenyl-2-(2-methyl-2H-[1,2,4]triazol-3-ylmethoxy)pyrido[2,3-d]pyridazine] gave a melting point of 222 to 223 °C.
